Reference: US8299129B2, “Peptide lipid-containing carrier and method for introducing compound into cells using same” (Fukuoka Prefectural Government, priority 2006, dated 2012)

Columns and labels:
Balb/c mouse [1] = experiment: Introduction of Cy3-labeled siRNA into mouse tissues using peptide lipid, fluorescence microscopy of removed tissues; assay type: in vivo; conditions: tail vein injection, Cy3-labeled siRNA complex, 4 hours
Description: (§1) Cy3-labeled siRNA ([…], purchased from Dharmacon) was mixed with 200 μl of 150 mM NaCl solution, 1.3 mM peptide lipid (RE-C12) (16 μl) was mixed with the above-mentioned siRNA solution and the mixture was incubated for 5 min to give peptide lipid—RNA complex. This was injected to Balb/c mouse (15-week-old) from the tail vein. […] Four hours later, the mouse was autopsied and each tissue (heart, lung, liver, kidney, spleen) was removed, which was cut into small pieces and observed with a fluorescence microscope. When peptide lipid was used as a carrier, siRNA could be introduced into each tissue in the body.

Balb/c mouse [2] = experiment: Acute toxicity in mouse after tail vein injection of peptide lipid-RNA complex; assay type: in vivo; conditions: at the concentration tested
Description: as §1

Arg-Glu-C12 [RE-C12] was tested, and the “Introduction efficiency into the liver and spleen” value (Balb/c mouse [1]) was “particularly superior”, the “evaluation (introduction of siRNA), heart” value (Balb/c mouse [1]; heart) was 5% and the “evaluation (introduction of siRNA), kidney” value (Balb/c mouse [1]; kidney) was 5%. For the same substance, the “evaluation (introduction of siRNA), liver” value (Balb/c mouse [1]; liver) was 25%, the “evaluation (introduction of siRNA), lung” value (Balb/c mouse [1]; lung) was 10% and the “evaluation (introduction of siRNA), spleen” value (Balb/c mouse [1]; spleen) was 30%. The acute toxicity (Balb/c mouse [2]) was “acute toxicity was not observed”.
